# Assays:
# NCI-H460 cells = assay: NCI-H460 cell growth inhibition test (MTT assay); assay type: cell-based, human; conditions: NCI-460 cells (NCI-H460 in method), 72 h
# Method: NCI-H460 Cell Growth Inhibition Test (MTT Assay)
# (§1) II. Reagents and Consumable Materials
# Culture medium: 90% RPMI1640+10% FBS (fetal calf serum); Pancreatin (0.25% (w/v) solution was formulated with PBS, 0.53 mM of EDTA was added in the formulation); PBS; 96-well culture plate.
# (§2) 1. A plate (10 cm) of cells in logarithmic growth phase that were normally cultured was collected;
# (§3) 2. The culture solution was sucked out. The plate was washed with 5 mL of PBS once or twice;
# 3. PBS was sucked out. 1.5 mL of 0.25% pancreatin was added to the plate to infiltrate the cells for 1 min;
# 4. The culture plate was placed in an incubator. Digestion was carried out for about 3 min at 37° C.;
# (§4) 5. 3 mL of complete culture solution was added to the culture plate to stop the digestion. The cells were carefully scoured with micropipette (1 mL) to give a uniform cell suspension. The suspension was implanted into a 96-well cell culture disc by 2000 cells/100 μL per well. The culture plate was incubated overnight under 5% CO2 at 37° C. In day 2, 100 μL of culture solution comprising a compound was added in each well. The plate was further incubated for 72 h under 5% CO2 at 37° C.;
# 6. The culture solution was sucked out;
# 7. 100 μL of serum-free culture solution containing 0.5 mg/mL MTT was added in each well. The plate was incubated for 3 h;
# 8. The culture solution was carefully sucked out;
# 9. […]
# 10. OD values were determined at 490 nM. […]
# Hep3B cells = assay: Hep3B cell growth inhibition test (SRB assay); assay type: cell-based; conditions: 72 h
# Method: Hep3B Cell Growth Inhibition Test (SRB Assay)
# as §1
# Culture medium: 90% RPMI-1640+10% FBS; Pancreatin (0.25% (w/v) solution was formulated with PBS, 0.53 mM of EDTA was added in the formulation); PBS; 96-well culture plate.
# as §2, §3
# 3. 1.5 mL of 0.25% pancreatin was added to the plate to infiltrate the cells;
# 4. The pancreatin was sucked out. The culture plate was placed in an incubator. Digestion was carried out for about 3 min at 37° C.;
# as §4, with “5. 4” for “5. 3”, “uniform single” for “uniform”, “culture plate” for “culture disc”, “by 5000” for “by 2000”
# 6. The culture solution was sucked out. 100 uL of TCA fixed cells which were diluted to 10% were added to each well. The plate was kept in a refrigerator for 1 h at 4° C.
# 7. TCA stationary liquid was sucked out. Each well was washed with 150 μL of ddH2O five times;
# 8. After the stationary liquid was cleansed, the plate was dried in the air at the room temperature;
# 9. 60 μL of SRB staining solution was added in each well. The well was stained for 15 min at the room temperature;
# 10. The SRB staining solution was sucked out. Each well was washed with 150 μL of 1% glacial acetic acid five times;
# 11. After the SRB staining solution was cleansed, the plate was dried in the air at the room temperature;
# 12. 100 μL of 10 mM Tris was added in each well. The plate was vibrated to dissolve out SRB;
# 13. OD values were determined at 570 nM.
# IV. Results and Treatments
# 1. Calculation of Relative Inhibition Ratio The inhibition ratio of the compound on cell growth=(PC−n)/(PC−NC)×100% […]
# mice of ICR strain = assay: Assay on MTD (maximum tolerated dose) in vivo of mice; conditions: for MTD: caudal vein injection, q4d×5 administration regimen; for Mortality Rate (%) / Number of Dead Animals ♂/♀: i.v., 5♂/5♀ per group; for Number of Dead Animals ♂/♀: 5 administrations
# Method: Assay on MTD (Maxium Tolerated Dose) In Vivo of Mice
# Assay on Maxium Tolerated Dose of Compound
# Assay animals: mice of ICR strain with a weight of 18-22 g, purchased from Beijing Vital River Laboratories Limited, License SCXK (jing) 2007-0001.
# Administration Regimen: each experimental animal was administered with corresponding dosage of tested substance once by injection of caudal vain every three days. Each dosage was initially designed as 5 times of administration. The specific time of administration depended on the conditions of the animals. It should be carefully observed the behavior conditions of the animals within 2 hours after administration. The animal's behavior was observed every 4 hours in the day of administration. The survival conditions and weight of animals were recorded every day and observed for whether abnormality occurred on the body surface thereof. The experimental animals were sacrificed on 14 day after administration and dissected for observation.
# I group: (20 mg/kg) group;
# II group: (25 mg/kg) group;
# III group: (30 mg/kg) group;
# IV group: solvent control group;
# There were four groups in total. Each group consisted of five male mice and five female mice.
# I group: (40 mg/kg) group;
# II group: (45 mg/kg) group;
# III group: (50 mg/kg) group;
# IV group: (55 mg/kg) group;
# V group: (60 mg/kg) group;
# There were five groups in total. Each group consisted of six male mice and six female mice.
# a represents that the experimental animal died immediately after the injection of drug rather than death caused by cytotoxicity.
# I group: (30 mg/kg) group;
# II group: (40 mg/kg) group;
# IV group: (60 mg/kg) group;
smiles,measurement,setting,value
"COc1cccc2c1C(=O)c1c(O)c3c(c(O)c1C2=O)CC(O)(C(=O)COC(=O)CCC(=O)O)CC3OC1CC(n2cccc2)C(O)C(C)O1 (stereo not drawn) [Compound A, 3′-pyrrolyldoxorubicin-14-oxo-succinic acid monoester, reference compound]",IC50,NCI-H460 cells,21 nM
same,IC50,Hep3B cells,444 nM
same,MTD,mice of ICR strain,approximately 30 mg/kg
same,MTD,mice of ICR strain; molar equivalent,~0.0433 mmol/kg
same,Mortality Rate (%),"mice of ICR strain; 30 mg/kg, 5 administrations (total 150 mg/kg)",10%
same,Number of Dead Animals ♂/♀,mice of ICR strain; 30 mg/kg,0/1
same,Mortality Rate (%),"mice of ICR strain; 40 mg/kg, 5 administrations (total 200 mg/kg)",50%
same,Number of Dead Animals ♂/♀,mice of ICR strain; 40 mg/kg,3/2
same,Mortality Rate (%),"mice of ICR strain; 50 mg/kg, 5 administrations (total 250 mg/kg)",100%
same,Number of Dead Animals ♂/♀,mice of ICR strain; 50 mg/kg,5/5
same,Mortality Rate (%),"mice of ICR strain; 60 mg/kg, 5 administrations (total 300 mg/kg)",100%
same,Number of Dead Animals ♂/♀,mice of ICR strain; 60 mg/kg,5/5
